Results on seven molecules are retold here after patent US20250122181A1, “BENZIMIDAZOLES AS MODULATORS OF IL-17” (Janssen Pharmaceutica NV, priority 2021, published 2025).

The subject of experiment [1] is IL-17A-induced G-CSF production in human normal keratinocyte (NHK). The experiment in a line: NHK Assay: IL-17A-induced G-CSF production in human normal keratinocyte. In kind it is cell-based. The settings on record: Homo sapiens, Keratinocyte, 24 h, IL-17A 5 ng/mL, simple average if tested more than once. In outline: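 Compound titrations are first mixed with recombinant human IL-17A for 1 h at room temperature. The mixture goes onto adult normal human keratinocytes (final IL-17A 5 ng/mL, 5% FBS, 0.2% DMSO) for 24 h at 37 °C. Secreted G-CSF is then measured by HTRF and IC50 fitted.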

Experiment [2] has as its target IL-17A(FLAG-Tagged): IL-17RA(His-Tagged) (Homo sapiens, UniProt Q16552, K93Q). The experiment is described as follows: IL-17A(FLAG-Tagged): IL-17RA(His-Tagged) Binding Disruption Eu-HTRF Assay, Protocol 1. To be noted: Protocol 1, FLAG tagged IL-17A 2.5 nM; simple average if tested more than once. The text has this: An antibody directed against the FLAG tag of IL-17A (SEQ ID NO: 1) is labeled with the HTRF donor chromophore (Europium-cryptate). IL-17A is present as a dimer that is “locked into” this quaternary structure due to the formation of loop-spanning […] disulfide bridges. The construct of IL-17RA used in the assay excludes the […] portion of the receptor and is fused to a C-terminal 10×His tag (SEQ ID NO:2). An antibody directed against the His tag of the IL-17RA chimera is labeled with the HTRF acceptor chromophore (“D2”). The fluorescence-resonance energy transfer (FRET) depends on the vicinity of the donor chromophore to the acceptor, and interruption of the binding between the IL-17A and IL-17RA causes the reduction/loss of FRET. Therefore, this assay allows to evaluate the compound effect on the binding IL-17A and IL-17RA by monitoring the fluorescence intensity of donor vs acceptor. The assay was run using either Protocol 1 or Protocol 2 as described below.
Protocol 1. 40 nl of 2-fold serial diluted compound solution for total 22 dilution points is added into each well of a 1536-well, white, low-volume, non-binding plate (Greiner #782904), then 2 μl of FLAG tagged IL-17A at 2× final concentration (2.5 nM) in solution of PBS+0.01% Triton-X100 is added to each well. The assay plate is briefly centrifuged then incubated for 1 h at rt. A mixed solution is prepared containing 2×5 nM 10HIS×IL-17RA, 2×2.5 nM Eu-anti-FLAG (CISBIO), 2×5 nM D2-anti-HIS (CISBIO) in PBS+0.01% Triton-X100+200 mM Potassium Fluoride (Sigma 60238) and 2 μl of mix is added to each well of the assay plate. The plate is briefly centrifuged then incubated for 2 h at rt. The HTRF intensities at the wavelength of donor (620 nm) and acceptor (665 nm) are measured using BMG Pherastar. The ratio between intensities at two wavelengths is calculated and plotted against the compound concentration and the data is fitted to a one-site competition model to yield IC50 of the compound.
(In general: Time-resolved FRET reads energy transfer from a long-lived donor to a nearby acceptor.)

Structures are written as SMILES.

Chain of UniProt Q16552 (Q16552 with tags, fused parts or gaps K93Q): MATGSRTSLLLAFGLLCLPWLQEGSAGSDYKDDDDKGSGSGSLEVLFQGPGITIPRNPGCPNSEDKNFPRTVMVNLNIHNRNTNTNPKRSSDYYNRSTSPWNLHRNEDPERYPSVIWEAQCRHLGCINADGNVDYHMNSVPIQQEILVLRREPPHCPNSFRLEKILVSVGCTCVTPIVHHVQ

For orientation: IC50 means the concentration at which inhibition is half-maximal. Lower therefore signals inhibition by little substance. Regarding `CC(C)(OC[C@H](NC(=O)c1nonc1C1CC1)c1nc2cc(CN3CC(C(F)(F)F)NC3=O)ccc2[nH]1)C(F)(F)F` (stereo in doubt) [Example 33, 4-Cyclopropyl-N—((R)-1-(5-(((R*)-2-oxo-4-(trifluoromethyl)imidazolidin-1-yl)methyl)-1H-benzo[d]imidazol-2-yl)-2-((1,1,1-trifluoro-2-methylpropan-2-yl)oxy)ethyl)-1,2,5-oxadiazole-3-carboxamide], the IC50 in experiment [1] was more than 100 nM; in experiment [2] it was 50 to 100 nM.
For the molecule `Cc1nonc1C(=O)N[C@@H](COC(C)(C)C(F)(F)F)c1nc2cc([C@@H](C3CC3)N3CC4(CC4)NC3=O)ccc2[nH]1` [Example 87, N—((R)-1-(5-((R)-Cyclopropyl(5-oxo-4,6-diazaspiro[2.4]heptan-6-yl)methyl)-1H-benzo[d]imidazol-2-yl)-2-((1,1,1-trifluoro-2-methylpropan-2-yl)oxy)ethyl)-4-methyl-1,2,5-oxadiazole-3-carboxamide], the half-maximal inhibitory concentration (IC50) in experiment [1] and in experiment [2] was less than 50 nM throughout.
Take `Cc1nonc1C(=O)NC(COC(C)(C)C(F)(F)F)c1nc2cc([C@@H](C)N3C[C@@H](C(F)(F)F)NC3=O)ccc2[nH]1` (single isomer, unassigned) [Example 6, 4-Methyl-N—((R*)-1-(5-((R)-1-((S)-2-oxo-4-(trifluoromethyl)imidazolidin-1-yl)ethyl)-1H-benzo[d]imidazol-2-yl)-2-((1,1,1-trifluoro-2-methylpropan-2-yl)oxy)ethyl)-1,2,5-oxadiazole-3-carboxamide]: the IC50 in experiment [1] and in experiment [2] was less than 50 nM each time.
With `CC(C)n1ncc(F)c1C(=O)N[C@@H](COC(C)(C)C(F)(F)F)c1nc2cc([C@@H](C3CC3)N3C[C@@H](C(F)(F)F)NC3=O)ccc2[nH]1` [Example 3, N—((R)-1-(5-((R)-Cyclopropyl((S)-2-oxo-4-(trifluoromethyl)imidazolidin-1-yl)methyl)-1H-benzo[d]imidazol-2-yl)-2-((1,1,1-trifluoro-2-methylpropan-2-yl)oxy)ethyl)-4-fluoro-1-isopropyl-1H-pyrazole-5-carboxamide], the IC50 in experiment [1] and in experiment [2] was less than 50 nM each time.
With `COC[C@H](c1ccc2[nH]c(C(COC(C)(C)C(F)(F)F)NC(=O)c3cnn(CC4CC4)n3)nc2c1)N1CC(F)(F)CNC1=O` (single isomer, unassigned) [Example 51, 2-(Cyclopropylmethyl)-N—((R*)-1-(5-((S)-1-(5,5-difluoro-2-oxotetrahydropyrimidin-1(2H)-yl)-2-methoxyethyl)-1H-benzo[d]imidazol-2-yl)-2-((1,1,1-trifluoro-2-methylpropan-2-yl)oxy)ethyl)-2H-1,2,3-triazole-4-carboxamide], the IC50 in experiment [1] is 50 to 100 nM; in experiment [2] it was less than 50 nM.
With `COC[C@H](c1ccc2[nH]c(C(COC(C)(C)C(F)(F)F)NC(=O)c3nonc3C3CC3)nc2c1)N1CC(F)(F)CNC1=O` (single isomer, unassigned) [Example 35, 4-Cyclopropyl-N—((R*)-1-(5-((S)-1-(5,5-difluoro-2-oxotetrahydropyrimidin-1(2H)-yl)-2-methoxyethyl)-1H-benzo[d]imidazol-2-yl)-2-((1,1,1-trifluoro-2-methylpropan-2-yl)oxy)ethyl)-1,2,5-oxadiazole-3-carboxamide], the half-maximal inhibitory concentration (IC50) in experiment [1] and in experiment [2] was less than 50 nM in each case.
Take `CC(C)(OC[C@@H](NC(=O)c1nonc1C1CC1)c1nc2cc(CN3C[C@@H](C(F)(F)F)NC3=O)ccc2[nH]1)C(F)(F)F` (single isomer, unassigned) [Example 16]: the IC50 in experiment [1] and in experiment [2] was more than 100 nM throughout.
